# Test results from patent US10577315B2, “Compositions and methods for treatment of prostate carcinoma” (Pellficure Pharmaceuticals, Inc., priority 2014, dated 2020).
# Columns and labels:
# Assay type in all cases: cell-based
# [1] = tested on: PTEN-P2/GFP prostate cancer cells; assay: Effect of 1,4-naphthoquinone analogs on PTEN-P2/GFP cell proliferation (WST-1 cell viability, 24 h); settings: Mus musculus, WST-1, medium with 10% FBS and DHT, read-out: PTEN-P2/GFP cell proliferation, percent of control
# Procedure: Cells are grown in phenol red-free DMEM medium containing 10% FBS, 2 mM L-glutamine, 100 U/ml penicillin/100 μg/ml streptomycin, insulin-selenium-transferrin (5 μg/ml insulin), and DHT 10^−8M final. Androgen withdrawal is achieved by not adding DHT to the medium. Cells are maintained in a humidified incubator at 37° C. and 5% CO2. G418 (100 μg/ml) is added to maintain stable expression of H2B-GFP.
# (§1) 100 microliters of PTEN-P2/GFP prostate cancer cells were plated at a density of 8000 cells/well in 96-well plates (triplicates) in growing medium containing 10% Fetal Bovine Serum and DHT. The next day, increasing concentrations of a 1,4-naphthoquinone analog (diluted from 10 mM DMSO stock solutions) were added. DMSO used as solvent for all analogs, was kept constant through the 96-well plates. The control consisted of DMSO alone. The cells were subsequently incubated for 24 hours at 37° C. and 5% CO2 in normal cell growth conditions. Cell viability was assessed by adding 9 μL/well of WST-1 reagent (Clontech), which measured mitochondrial activity of live cells. […] The incubation time was 3 hours at 37° C. Optical density of the cell samples was measured at 460 nm, by using plate reader Spectra Max 250 (Molecular Devices). The drug was determined to be cytotoxic when OD values show an inverse correlation with analog concentrations. The results are shown in TABLES 3.1-3.4, FIGS. 2A-2E, and FIGS. 3A-3D.
# [2] = tested on: human breast cancer SKBR-3 cells; assay: Dose response of 1,4-naphthoquinone analogs in human breast cancer cells SKBR-3 (WST-1, 24 h)
# Procedure: as §1, with “human breast” for “PTEN-P2/GFP prostate”, “cancer SKBR-3” for “cancer”, “Serum, penicillin/streptomycin,” for “Serum”, “glutamine.” for “DHT.”, “concentrations.” for “concentrations. The results are shown in TABLES 3.1-3.4, FIGS. 2A-2E, and FIGS. 3A-3D.”
# [3] = tested on: human fibrosarcoma HT1080 cells; assay: Dose response of 1,4-naphthoquinone analogs in human fibrosarcoma cells HT1080 (WST-1, 24 h)
# Procedure: as §1, with “human fibrosarcoma HT1080” for “PTEN-P2/GFP prostate cancer”, “Serum, penicillin/streptomycin,” for “Serum”, “glutamine.” for “DHT.”, “concentrations.” for “concentrations. The results are shown in TABLES 3.1-3.4, FIGS. 2A-2E, and FIGS. 3A-3D.”
SMILES,activity at 1.2 µM [1],activity at 2.5 µM [1],activity at 5 µM [1],activity at 7.5 µM [1],activity at 10 µM [1],activity at 15 µM [1],"human SKBR-3 cell proliferation, percent of control ([2]; 1.2 μM)","human SKBR-3 cell proliferation, percent of control ([2]; 2.5 μM)","human SKBR-3 cell proliferation, percent of control ([2]; 5 μM)","human SKBR-3 cell proliferation, percent of control ([2]; 7.5 μM)","human SKBR-3 cell proliferation, percent of control ([2]; 10 μM)","human SKBR-3 cell proliferation, percent of control ([2]; 15 μM)","human SKBR-3 cell proliferation, percent of control ([2]; 20 μM)","proliferation of human fibrosarcoma HT1080 cells, percent of control ([3]; 1.2 μM)","proliferation of human fibrosarcoma HT1080 cells, percent of control ([3]; 2.5 μM)","proliferation of human fibrosarcoma HT1080 cells, percent of control ([3]; 5 μM)","proliferation of human fibrosarcoma HT1080 cells, percent of control ([3]; 7.5 μM)","proliferation of human fibrosarcoma HT1080 cells, percent of control ([3]; 10 μM)","proliferation of human fibrosarcoma HT1080 cells, percent of control ([3]; 15 μM)","proliferation of human fibrosarcoma HT1080 cells, percent of control ([3]; 20 μM)",other results
"O=C1C=C(Oc2c(F)cc(F)cc2F)C(=O)c2ccccc21 [Analog F04, 2-(2,4,6-trifluorophenoxy)-1,4-naphthoquinone]",101%,101%,83.3%,17.6%,2.09%,1.47%,86.74% of control,83.72% of control,74.38% of control,65.90% of control,7.52% of control,1.20% of control,1.90% of control,87.77% of control,81.64% of control,78.43% of control,84.86% of control,76.41% of control,69.17% of control,63.51% of control,activity at 20 µM [1]: 2.64%
"O=C1C=C(Oc2ccccc2)C(=O)c2ccccc21 [Analog F01, 2-phenoxy-1,4-naphthoquinone]",,,43.1%,,13.2%,9.77%,99.47% of control,105.05% of control,85.33% of control,61.15% of control,4.30% of control,1.90% of control,2.19% of control,85.21% of control,81.88% of control,66.22% of control,73.66% of control,69.05% of control,41.07% of control,18.29% of control,activity at 2 µM [1]: 91.7%; activity at 3 µM [1]: 77.9%; activity at 4 µM [1]: 63.4%; activity at 6 µM [1]: 30.9%; activity at 7 µM [1]: 24.1%; activity at 25 µM [1]: 9.86%
"COc1ccc(OC2=CC(=O)c3ccccc3C2=O)cc1 [Analog F05, 2-(4-methoxyphenoxy)-1,4-naphthoquinone]",102%,113%,56.1%,8.83%,1.32%,0.77%,151.35% of control,144.41% of control,120.15% of control,94.14% of control,17.05% of control,1.91% of control,2.99% of control,81.04% of control,76.27% of control,67.81% of control,67.85% of control,66.08% of control,55.00% of control,56.04% of control,activity at 20 µM [1]: 3.41%
"Cc1cc(Cl)ccc1OC1=CC(=O)c2ccccc2C1=O [Analog F07, 2-(4-chloro-2-methylphenoxy)-1,4-naphthoquinone]",,,96%,,36.3%,19.4%,143.50% of control,160.12% of control,131.48% of control,68.35% of control,12.78% of control,2.70% of control,6.29% of control,85.35% of control,89.16% of control,76.04% of control,68.43% of control,69.89% of control,67.89% of control,69.50% of control,activity at 2 µM [1]: 101%; activity at 3 µM [1]: 102%; activity at 4 µM [1]: 101%; activity at 6 µM [1]: 88.4%; activity at 7 µM [1]: 81.8%; activity at 25 µM [1]: 12.5%
"O=C1C=C(Oc2ccc(OCc3ccccc3)cc2)C(=O)c2ccccc21 [Analog F06, 2-(4-(benzyloxy)phenoxy)-1,4-naphthoquinone]",99.8%,99.8%,105%,106%,108%,99.2%,152.32% of control,147.42% of control,134.16% of control,151.41% of control,136.66% of control,125.96% of control,21.95% of control,82.93% of control,81.12% of control,80.24% of control,81.24% of control,50.19% of control,49.19% of control,46.81% of control,activity at 20 µM [1]: 79.9%
